Test results: patent publication US6500846B1, “CDK inhibitors having flavone structure” (LG Chemical, Ltd., priority 1998, dated 2002)
pIC50: −log10 of the molar value.

How the values were obtained:
CDK4/cyclin D1 = target: T1, CDK4/cyclin D1 (Homo sapiens, UniProt P11802); assay: Inhibitory activity against CDK4/cyclin D1 enzyme (GST-RB phosphorylation, P32-γ-ATP, scintillation counting); assay type: biochemical; details: CDK4/cyclin D1, 100 μM ATP, GST-RB substrate, 30° C. 30 minutes
T1 construct: made in house; host or cells: insect cells infected with baculoviruses
T1 sequence (P11802 whole entry, species assumed): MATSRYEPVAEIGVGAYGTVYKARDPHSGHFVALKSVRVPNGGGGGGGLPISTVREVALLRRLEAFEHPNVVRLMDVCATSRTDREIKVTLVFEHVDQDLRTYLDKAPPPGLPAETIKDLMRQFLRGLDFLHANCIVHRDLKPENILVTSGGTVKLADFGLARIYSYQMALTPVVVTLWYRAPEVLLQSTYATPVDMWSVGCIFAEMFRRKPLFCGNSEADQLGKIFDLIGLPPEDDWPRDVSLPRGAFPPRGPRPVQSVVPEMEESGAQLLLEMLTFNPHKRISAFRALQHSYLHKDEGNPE
T1 sequence (P24385 whole entry partner, species assumed): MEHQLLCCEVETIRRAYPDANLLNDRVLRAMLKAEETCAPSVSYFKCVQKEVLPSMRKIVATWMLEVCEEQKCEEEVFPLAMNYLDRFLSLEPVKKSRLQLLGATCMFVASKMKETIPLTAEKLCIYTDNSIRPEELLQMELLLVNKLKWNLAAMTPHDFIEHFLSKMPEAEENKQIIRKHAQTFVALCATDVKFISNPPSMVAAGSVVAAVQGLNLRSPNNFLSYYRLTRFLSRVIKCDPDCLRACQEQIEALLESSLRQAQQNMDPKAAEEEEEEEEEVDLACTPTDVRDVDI
Method: (§1) Analysis of inhibitory activity against CDK2/cyclin A and CDK4/cyclin D1 enzyme.
(§2) The inhibitory activity against CDK2 is measured by referring to Kitagawa, M. et al., Oncogene 9:2549, 1994 and the inhibitory activity against CDK4 is measured by referring to Carlson, B. A. et al., Cancer Research 56:2473,1996.
(§3) As for CDK2, either the extract from the insect cell infected both with baculovirus which expresses CDK2 gene and baculovirus which expresses cyclin A gene or the active enzyme which had been purified therefrom was used. CDK4 enzyme was also obtained from the insect cell infected both with baculovirus expressing CDK4 gene and baculovirus expressing cyclin D1 gene. As the substrate for CDK2, either histon H1 or Rb protein was used. Rb protein was also used as the substrate for CDK4.
(§4) Specifically the activities of enzymes CDK2/cyclin A and CDK4/cyclin D1 were determined according to the following procedure.
(§5) 100 ng of enzyme was reacted in a total 1000 μl of 20 mM Tris (pH 8.0), 100 mM NaCl, 10 mM MgCl2 buffer solution containing 20 μg of GST-RB protein, 100 μM of ATP and 5 μCi of P32-γ-ATP at 30° C. for 30 minutes. Then, the enzyme reaction was stopped by adding EDTA to a concentration of 20 mM. Subsequently, 30 μl of 50% glutathione bead (purchased from Pharmacia) was added to attach GST-RB to the bead, which was washed three times with 20mM Tris (pH 8.0), 100 mM NaCl, 10 mM EDTA solution, and then scintillation counting was carried out. To analyze the inhibitory activity of the compound, the inhibitor having a proper concentration was added to the enzyme reaction solution, and then the enzyme activity was measured according to the above method.
(§6) The inhibitory activity of the compound of formula (1) according to the present invention against CDK2 and CDK4 is represented as IC50 value. The compounds which are not included in Examples(compound 63, 64, 65 and 66) were synthesized and purified according to the same procedure as examples, and then IC50 thereof was measured.

CDK2/cyclin A = target: T2, CDK2/cyclin A (Homo sapiens, UniProt P24941); assay: Inhibitory activity against CDK2/cyclin A enzyme (GST-RB phosphorylation, P32-γ-ATP, scintillation counting); assay type: biochemical; details: 100 μM ATP, GST-RB substrate, 30° C. 30 minutes
T2 construct: made in house; host or cells: insect cells infected with baculoviruses
Method: as §1, §2, §3, §4, §5, §6

pIC50 (CDK4/cyclin D1)	pIC50 (CDK2/cyclin A)	Compound
5.57	5.33	N#Cc1cccc(NC(=O)Nc2ccc3oc(-c4ccc(O)c(O)c4)c(O)c(=O)c3c2)c1 [Compound 60, N-(3-cyanophenyl)-N′-[2-(3,4-dihydroxyphenyl)-3-hydroxy-4-oxo-4H-chromen-6-yl]urea]
5.30	4.20	O=c1c(O)c(-c2ccc(O)c(O)c2)oc2ccc(NS(=O)(=O)CCc3cccc4ccccc34)cc12 [Compound 33, N-[2-(3,4-dihydroxyphenyl)-3-hydroxy-4-oxo-4H-chromen-6-yl]-2-(1-naphthyl)-1-ethanesulfonamide]
5.77	5.25	O=C(Nc1ccc([N+](=O)[O-])cc1)Nc1ccc2oc(-c3ccc(O)c(O)c3)c(O)c(=O)c2c1 [Compound 61, N-[2-(3,4-dihydroxyphenyl)-3-hydroxy-4-oxo-4H-chromen-6-yl]-N′-(4-nitrophenyl)urea]
> 5.00	> 5.00	COc1cccc2oc(-c3ccc(O)c(O)c3)c(O)c(=O)c12 [Compound 27, 2-(3,4-dihydroxyphenyl)-3-hydroxy-5-methoxy-4H-chromen-4-one]
> 5.00	> 5.00	O=c1c(O)c(-c2ccc(O)c(O)c2)oc2c(O)c(O)ccc12 [Compound 66, 2-(3,4-dihydroxyphenyl)-3,7,8-trihydroxy-4H-chromen-4-one]
< 4.00	< 4.00	COc1ccc(-c2oc3ccccc3c(=O)c2O)cc1 [Compound 11, 3-hydroxy-2-(4-methoxy-phenyl)-chromen-4-one]
5.74	4.75	O=c1c(O)c(-c2ccc(O)c(O)c2)oc2ccc(NS(=O)(=O)c3ccc(Br)cc3)cc12 [Compound 29, 4-bromo-N-[2-(3,4-dihydroxyphenyl)-3-hydroxy-4-oxo-4H-chromen-6-yl]benzenesulfonamide]
> 5.00	> 5.00	COc1ccc2c(=O)c(O)c(-c3ccc(O)c(O)c3)oc2c1O [Compound 24, 2-(3,4-dihydroxyphenyl)-3,8-dihydroxy-7-methoxy-4H-chromen-4-one]
5.64	5.39	O=C(N1CCc2ccc(S(=O)(=O)Nc3ccc4oc(-c5ccc(O)c(O)c5)c(O)c(=O)c4c3)cc2C1)C(F)(F)F [Compound 44, N-[2-(3,4-dihydroxyphenyl)-3-hydroxy-4-oxo-4H-chromen-6-yl]-2-(2,2,2-trifluoroacetyl)-1,2,3,4-tetrahydro-7-isoquinolinesulfonamide]
> 5.00	> 5.00	O=c1c(O)c(-c2ccc(O)c(O)c2)oc2c(Cl)cc(Cl)cc12 [Compound 19, 6,8-dichloro-2-(3,4-dihydroxyphenyl)-3-hydroxy-4H-chromen-4-one]
> 5.00	> 5.30	O=c1c(O)c(-c2ccc(O)c(O)c2)oc2ccc(Cl)cc12 [Compound 12, 6-chloro-2-(3,4-dihydroxyphenyl)-3-hydroxy-4H-chromen-4-one]
< 3.70	< 3.70	COc1ccc2c(=O)cc(-c3ccc(Cl)cc3)oc2c1 [Compound 1, 2-(4-chloro-phenyl)-7-methoxy-chromen-4-one]
5.19	4.70	O=c1c(O)c(-c2ccc(O)c(O)c2)oc2ccc(NS(=O)(=O)CCCCl)cc12 [Compound 41, 3-chloro-N-[2-(3,4-dihydroxyphenyl)-3-hydroxy-4-oxo-4H-chromen-6-yl]-1-propanesulfonamide]
5.59	4.72	O=c1c(O)c(-c2ccc(O)c(O)c2)oc2ccc(NS(=O)(=O)c3ccc(F)c(F)c3)cc12 [Compound 38, N-[2-(3,4-dihydroxyphenyl)-3-hydroxy-4-oxo-4H-chromen-6-yl]-3,4-difluorobenzenesulfonamide]
5.38	5.38	O=C(Nc1cccc(Br)c1)Nc1ccc2oc(-c3ccc(O)c(O)c3)c(O)c(=O)c2c1 [Compound 58, N-(3-bromophenyl)-N′-[2-(3,4-dihydroxyphenyl)-3-hydroxy-4-oxo-4H-chromen-6-yl]urea]
> 5.30	> 5.30	O=c1c(O)c(-c2ccc(O)c(O)c2)oc2ccc(Br)cc12 [Compound 13, 6-bromo-2-(3,4-dihydroxyphenyl)-3-hydroxy-4H-chromen-4-one]

pIC50 (CDK4/cyclin D1)	pIC50 (CDK2/cyclin A)	Compound
5.00	4.70	O=C(Nc1ccc2oc(-c3ccc(O)c(O)c3)c(O)c(=O)c2c1)Nc1ccc(Cl)cc1Cl [Compound 59, N-(2,4-dichlorophenyl)-N′-[2-(3,4-dihydroxyphenyl)-3-hydroxy-4-oxo-4H-chromen-6-yl]-urea]
5.80	4.51	CN1CCN(c2ccc(S(=O)(=O)Nc3ccc4oc(-c5ccc(O)c(O)c5)c(O)c(=O)c4c3)cc2[N+](=O)[O-])CC1 [Compound 49, N-[2-(3,4-dihydroxyphenyl)-3-hydroxy-4-oxo-4H-chromen-6-yl]-4-(4-methyl-1-piperazinyl)-3-nitrobenzenesulfonamide]
> 5.00	> 5.00	O=c1c(O)c(-c2ccc(O)c(O)c2)oc2ccccc12 [Compound 63, 2-(3,4-dihydroxyphenyl)-3-hydoxy-4H-chromen-4-one]
5.38	4.90	O=c1c(O)c(-c2ccc(O)c(O)c2)oc2ccc(NS(=O)(=O)c3ccc(-c4ccccn4)s3)cc12 [Compound 37, N-[2-(3,4-dihydroxyphenyl)-3-hydroxy-4-oxo-4H-chromen-6-yl]-5-(2-pyridinyl)-2-thiophenesulfonamide]
> 5.00	> 5.00	COc1ccc2oc(-c3ccc(O)c(O)c3)c(O)c(=O)c2c1 [Compound 16, 2-(3,4-dihydroxyphenyl)-3-hydroxy-6-methoxy-4H-chromen-4-one]
5.68	4.85	O=c1c(O)c(-c2ccc(O)c(O)c2)oc2ccc(NS(=O)(=O)c3cccc(Br)c3)cc12 [Compound 30, 3-bromo-N-[2-(3,4-dihydroxyphenyl)-3-hydroxy-4-oxo-4H-chromen-6-yl]benzenesulfonamide]
< 4.00	< 4.00	COc1ccc(-c2oc3c(Cl)cc(Cl)cc3c(=O)c2O)cc1 [Compound 10, 6,8-dichloro-3-hydroxy-2-(4-methoxy-phenyl)-chromen-4-one]
5.37	4.34	O=c1c(O)c(-c2ccc(O)c(O)c2)oc2ccc(NS(=O)(=O)c3ccc(F)cc3F)cc12 [Compound 42, N-[2-(3,4-dihydroxyphenyl)-3-hydroxy-4-oxo-4H-chromen-6-yl]-2,4-difluorobenzenesulfonamide]
> 4.30	> 4.30	O=c1c(O)c(-c2ccc(O)c(O)c2)oc2cc(O)cc(O)c12 [Compound 65, 2-(3,4-dihydroxyphenyl)-3,5,7-trihydroxy-4H-chromen-4-one]
5.22	4.55	O=C(O)c1ccc(S(=O)(=O)Nc2ccc3oc(-c4ccc(O)c(O)c4)c(O)c(=O)c3c2)cc1 [Compound 45, 4-({[2-(3,4-dihydroxyphenyl)-3-hydroxy-4-oxo-4H-chromen-6-yl]amino}sulfonyl)benzoic acid]
> 4.52	> 4.52	COc1ccc2c(=O)c(O)c(-c3ccc(O)c(O)c3)oc2c1 [Compound 23, 2-(3,4-Dihydroxyphenyl)-3-hydroxy-7-methoxy-4H-chromen-4-one]
5.20	4.09	O=c1c(O)c(-c2ccc(O)c(O)c2)oc2ccc(NS(=O)(=O)c3ccc4c(c3)CNCC4)cc12 [Compound 46, N-[2-(3,4-dihydroxyphenyl)-3-hydroxy-4-oxo-4H-chromen-6-yl]-1,2,3,4-tetrahydro-7-isoquinolinesulfonamide]
5.38	5.30	O=C(Nc1ccccc1)Nc1ccc2oc(-c3ccc(O)c(O)c3)c(O)c(=O)c2c1 [Compound 56, N-[2-(3,4-dihydroxyphenyl)-3-hydroxy-4-oxo-4H-chromen-6-yl]-N′-phenylurea]
5.38	4.45	O=c1c(O)c(-c2ccc(O)c(O)c2)oc2ccc(NS(=O)(=O)c3ccc4ccccc4c3)cc12 [Compound 31, N-[2-(3,4-dihydroxyphenyl)-3-hydroxy-4-oxo-4H-chromen-6-yl]-2-naphthalenesulfonamide]
6.03	–	O=c1c(O)c(-c2ccc(O)c(O)c2)oc2ccc(NS(=O)(=O)c3ccc(N4CCOCC4)c([N+](=O)[O-])c3)cc12 [Compound 48, N-[2-(3,4-dihydroxyphenyl)-3-hydroxy-4-oxo-4H-chromen-6-yl]-4-(4-morpholinyl)-3-nitrobenzenesulfonamide]

Compound	pIC50 (CDK4/cyclin D1)	pIC50 (CDK2/cyclin A)
O=c1cc(-c2ccccc2)oc2cc(O)ccc12 [Compound 3, 7-hydroxy-2-phenyl-chromen-4-one]	< 3.70	< 3.70
